13 molecules from patent US20220073536A1 (Rigel Pharmaceuticals, Inc., priority 2003, published 2022) can be followed below.

pIC50: −log10 of the molar value. Where two headings read alike, the source gives them in different places.

The test has as its system cultured human mast cells (CHMC). The test is described as follows: CHMC low cell density IgE activation: tryptase assay. Format: cell-based. Particulars: Homo sapiens, Mast cell, low cell density CHMC, IgE activation. In outline: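 Anti-IgE-driven degranulation of cultured human mast cells at low density, 1000–1500 cells/well, was induced over 30 min at 37 °C. It was scored by supernatant tryptase activity on a fluorogenic substrate.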

Where [1] appears, read: tryptase, 3 pt, read-out: LD Tryptase, CHMC, IgE, 3 pt.
Setting [2] is: tryptase, 8 pt, read-out: LD Tryptase, CHMC, IgE, 8 pt.
Where [3] appears, read: tryptase release, 8 pt, read-out: LD Tryptase, CHMC, IgE, 8 pt.

For the molecule `CCCn1cc2cc(Nc3ncc(F)c(Nc4ccc(Cl)c(Cl)c4)n3)ccc2n1` [Compound 762, N4-(3,4-Dichlorophenyl)-5-fluoro-N2-(2-n-propylindazol-5-yl)-2,4-pyrimidinediamine], the pIC50 by setting is: under setting [1], greater than 5.00; under setting [2], greater than 5.00.
`CCCn1cc2cc(Nc3ncc(F)c(Nc4ccc5c(c4)NC(=O)C(C)(C)O5)n3)ccc2n1` [Compound 763, N4-(2,2-Dimethyl-3-oxo-4H-benz[1,4]oxazin-6-yl)-5-fluoro-N2-(2-n-propylindazol-5-yl)-2,4-pyrimidinediamine]: the pIC50 by setting is: under setting [1], greater than 5.00; under setting [2], greater than 5.00.
Consider `CCCn1cc2ccc(Nc3ncc(F)c(Nc4ccc5c(c4)NC(=O)C(C)(C)O5)n3)cc2n1` [Compound 764, N4-(2,2-Dimethyl-3-oxo-4H-benz[1,4]oxazin-6-yl)-5-fluoro-N2-(2-n-propylindazol-6-yl)-2,4-pyrimidinediamine], for which the pIC50 under setting [1] was greater than 5.00 and the pIC50 under setting [2] is greater than 5.00.
Take `CCCn1cc2ccc(Nc3ncc(F)c(Nc4ccc(Cl)c(Cl)c4)n3)cc2n1` [Compound 765, N4-(3,4-Dichlorophenyl)-5-fluoro-N2-(2-n-propylindazol-6-yl)-2,4-pyrimidinediamine]: the pIC50 under setting [1] is greater than 5.00 and the pIC50 under setting [2] was greater than 5.00.
In the case of `COc1ccc(Nc2nc(Nc3ccc4c(cnn4C(C)C)c3)ncc2F)cc1Cl` [Compound 779, N4-(3-Chloro-4-methoxyphenyl)-5-fluoro-N2-[1-(1-methylethyl)indazol-5-yl]-2,4-pyrimidinediamine], the pIC50 under setting [3] is greater than 5.00.
On to `CC(C)n1ncc2cc(Nc3ncc(F)c(Nc4ccc(Cl)c(Cl)c4)n3)ccc21` [Compound 780, N4-(3,4-Dichlorophenyl)-5-fluoro-N2-[1-(1-methylethyl)indazol-5-yl]-2,4-pyrimidinediamine], for which, under setting [3], the pIC50 is greater than 5.00.
Same read-out and setting: to `CC(C)n1ncc2cc(Nc3ncc(F)c(Nc4ccc5c(c4)NC(=O)C(C)(C)O5)n3)ccc21` [Compound 781, N4-(2,2-Dimethyl-3-oxo-4H-benz[1,4]oxazin-6-yl)-5-fluoro-N2-[1-(1-methylethyl)indazol-5-yl]-2,4-pyrimidinediamine] belongs greater than 5.00; to `COc1cc(Nc2nc(Nc3ccc4c(cnn4C(C)C)c3)ncc2F)ccc1F` [Compound 782, 5-Fluoro-N4-(4-fluoro-3-methoxyphenyl)-N2-[1-(1-methylethyl)indazol-5-yl]-2,4-pyrimidinediamine], greater than 5.00.
The same measure, in the same setting: to `COc1ccc(Nc2nc(Nc3ccc4cnn(C(C)C)c4c3)ncc2F)cc1Cl` [Compound 783, N4-(3-Chloro-4-methoxyphenyl)-5-fluoro-N2-[1-(1-methylethyl)indazol-6-yl]-2,4-pyrimidinediamine] belongs greater than 5.00; to `CC(C)n1ncc2ccc(Nc3ncc(F)c(Nc4ccc(Cl)c(Cl)c4)n3)cc21` [Compound 784, N4-(3,4-Dichlorophenyl)-5-fluoro-N2-[1-(1-methylethyl)indazol-6-yl]-2,4-pyrimidinediamine], greater than 5.00; to `CC(C)n1ncc2ccc(Nc3ncc(F)c(Nc4ccc5c(c4)NC(=O)C(C)(C)O5)n3)cc21` [Compound 785, N4-(2,2-Dimethyl-3-oxo-4H-benz[1,4]oxazin-6-yl)-5-fluoro-N2-[1-(1-methylethyl)indazol-6-yl]-2,4-pyrimidinediamine], greater than 5.00.
Take `CC(C)n1ncc2ccc(Nc3ncc(F)c(Nc4ccc5c(c4)NC(=O)[C@H](C)O5)n3)cc21` [Compound 786, (S)-N4-[2-Methyl-3-oxo-2H,4H-benz[1,4]oxazin-6-yl]-5-fluoro-N2-[1-(1-methylethyl)indazol-6-yl]-2,4-pyrimidinediamine]: the pIC50 under setting [3] was greater than 5.00.
Still for that read-out and setting: to `Cn1nc(N)c2cc(Nc3ncc(F)c(Nc4ccc(Cl)c(Cl)c4)n3)ccc21` [Compound 805, N2-(3-Amino-1-methylindazol-5-yl)-N4-(3,4-dichlorophenyl)-5-fluoro-2,4-pyrimidinediamine] belongs greater than 5.00.
